Values quoted from earlier work as cited in patent publication US20190083649A1, “CROSSLINKED POLYMER NANO-ASSEMBLIES AND USES THEREOF” (University of Massachusetts, priority 2017, published 2019).

C=C(C)C(=O)OCCN(C(C)C)C(C)C [DPA, 2-(diisopropylamino)ethyl methacrylate]
pKa of the protonated form of the amine: around 6.2
